Where two headings read alike, the source gives them in different places. Marks after values point to notes of the source that are not given here.
Columns and labels:
[1] = NMR method: depletion of electrophile signal on reaction with DCYA
Source text: The described example can be applied to pure chemicals and mixtures. The method includes the acquisition of at least one NMR spectrum, mixing an electrophile and a nucleophile to acquire an array of control spectra and an addition of catalyst to record an array of reaction spectra. It also includes the quantification of at least one signal and the comparison of the signal with a control and the classification of the reaction based on the depletion of potential sensitizer based on the quantified residual signal.
2,5-Dimethylfuran was used as internal standard. When necessary, characterization of the product(s) formed during the reaction(s) was performed by homonuclear ^1H connectivities using 2D-COSY experiments. […] Two- and three bond ^1H-^13C connectivities were determined by gradient-HMBC experiments in which the evolution period for long-range ^1H-^13C coupling constants was optimized for a ^2,3JC,H of 8 Hz. Through-space ^1H connectivities were determined using a NOESY experiment with a mixing time of 0.450 s. […] Toronto, Canada].
In a 3 mm NMR tube, 1 volume of DCYA (100) mM in CDCl3) was mixed with one volume of sensitizer (100 mM in CDCl3) to give a final concentration of 50 mM for both DCYA and the sensitizer. Control ^1H NMR spectra (reference spectra) were recorded at regular intervals of for a minimum of 5 min. […] All spectra were recorded at constant temperature. All experiments were conducted using the manufacturer's standard presaturation pulse programs and experimental conditions were chosen as explained in NMR spectroscopy section. The progress of the reaction was followed by the diminished peak areas of the resonances for the signal of interest. The spectra were phased, referenced, and integrated using NMR data elaboration software. The structural characterizations of the resulting adducts were confirmed by conducting additional 2D-NMR experiments when necessary.
Covalent reaction of DCYA with carvone is dependent on the activation of the nucleophilic group (ex. sulfhydryl group to the reactive thio-anion) under basic conditions. This reaction is strongly dependent on the nature of the nucleophile and may be modulated by careful choice of the model nucleophile and the reaction conditions.
The control spectra are used as reference spectra (FIG. 3A). All the spectra were subjected to automatic phase and baseline correction using a Bernstein polynomial fit (order 3). After these two steps, all the spectra were integrated over the areas of interest. […] Both vinylic and adduct peak areas were normalized relative to the internal standard signal peaks. […] The concentrations of both electrophile and adduct were then plotted as percentage against time (in minutes). (FIG. 5).

[2] = cited from earlier work; for LLNA (EC3): effective concentration, published literature (Table 1); for LLNA Classification: published literature; for LLNA EC3: reported results (Table 7)
[3] = test system: ARE-dependent gene activity in a recombinant cell line; conditions: cited from earlier work
[4] = test system: thiol peptide; assay: Cys-DPRA (Direct Peptide Reactivity Assay), literature data; conditions: for Cys-DPRA binary classification: FN: false negative; for Cys-DPRA binary classification: FP: false positive; for Cys-DPRA binary classification: TN: true negative; for Cys-DPRA binary classification: TP: true positive
[5] = Microplate spectrophotometric method (DCYA assay), fluorescence end-point; conditions: for DCYA 100-RI: RI = reactivity index, 2 equiv. electrophile, pH 10 buffer; for DCYA binary classification: FN: false negative; for DCYA binary classification: FP: false positive; for DCYA binary classification: TN: true negative; for DCYA binary classification: TP: true positive, positive if 100-RI <95; for DCYA assay reactivity / classification in words: microplate spectrophotometric method
[6] = test system: thiol peptide; conditions: cited from earlier work; for Cys-DPRA % Pept. remain.: reported results from the literature
[7] = based on depletion of electrophile signal at 30 min
[8] = conversion of test chemical at 90 min, 1 equiv. DCYA, 0.1 equiv. DBN, CDCl3

| Compound | Cys-DPRA binary classification: FN [4] | Cys-DPRA binary classification: FP [4] | Cys-DPRA binary classification: TN [4] | Cys-DPRA binary classification: TP [4] | DCYA 100-RI [5] | DCYA binary classification: FN [5] | DCYA binary classification: FP [5] | DCYA binary classification: TN [5] | DCYA binary classification: TP [5] | other results |
| --- | --- | --- | --- | --- | --- | --- | --- | --- | --- | --- |
| CC(C)=CCCC(C)=CC=O [Citral] | 0 | 0 | 0 | 1 | 88.8 | 0 | 0 | 0 | 1 | NMR assay reactivity / classification in words [1]: moderate/low electrophilic behavior; Conversion at t30 (depletion of electrophile signal) ([1]; 30 min, 50 mM): 29%; NMR Method conversion ([1]; 90 min, 50 mM): 29%; NMR Classification [1, 7]: Weak-moderate; LLNA (EC3) [2]: 9.2%; LLNA Classification [2]: Moderate; LLNA EC3 [2]: 9.2%; KeratinoSens ™ EC3 ([3]; published literature (Table 1)): 67.36 µM; KeratinoSens ™ EC3 ([3]; reported results (Table 7)): 67.36 µM |
| O=C1CCO1 [Propionolactone] | 0 | 0 | 0 | – | – | 0 | 0 | 0 | 1 | – |
| Oc1cccc(O)c1 [Resorcinol] | – | – | – | – | 103.5 | – | – | – | – | DCYA assay reactivity / classification in words [5]: non-reactive |
| C=C1CC(OC(=O)/C(C)=C/C)C2C(=C)C(=O)OC2/C=C(\C)C(O)CC1O (stereo not drawn) [hydroxyiso-nobilin, hydroxyisonobilin] | – | – | – | – | – | – | – | – | – | DCYA assay reactivity / classification in words [5]: highly reactive |
| Nc1ccccc1 [Aniline] | – | – | – | – | – | – | – | – | – | Cys-DPRA % Pept. remain. [6]: 100%; KeratinoSens ™ EC3 ([3]; reported results (Table 7)): >2000 µM |
| CC=CC(=O)CC [4-Hex-3-en-one] | 0 | 0 | 0 | – | 2.8 | 0 | 0 | 0 | 1 | LLNA EC3 [2]: 4.2% |
| O=C(OCc1ccccc1)c1ccccc1 [Benzyl benzoate] | 0 | 0 | 1 | 0 | 110.6 | 0 | 0 | 1 | 0 | – |
| O=C(O)C(=O)O [Oxalic acid] | 0 | 0 | 1 | 0 | 89.4 | 0 | 1 | 0 | 0 | – |
| O=C(O)c1ccccc1O [Salicylic acid] | 0 | 0 | 1 | 0 | 106.9 | 0 | 0 | 1 | 0 | KeratinoSens ™ EC3 ([3]; reported results (Table 7)): >2000 µM |
| COc1cc(/C=C/C(=O)CC(=O)/C=C/c2ccc(O)c(OC)c2)ccc1O [Curcumin] | – | – | – | – | – | – | – | – | – | Conversion at t30 (depletion of electrophile signal) ([1]; at 30 min, only one equivalent of DCYA, curcumin in DMSO-d6): 17^# %; Conversion at t30 (depletion of electrophile signal) ([1]; at 30 min, two equivalents of DCYA, curcumin in DMSO-d6): 43* %; NMR Method conversion ([1]; at 90 min, one equivalent of DCYA, DMSO-d6): 18%; NMR Method conversion ([1]; at 90 min, two equivalents of DCYA, DMSO-d6): 43% |
| C=C1C(=O)O[C@@H]2/C=C(/C)[C@H](O)C[C@@H](O)C(=C)C[C@H](OC(=O)/C(C)=C\C)[C@@H]12 [3 epi-hydroxyisonobilin] | – | – | – | – | – | – | – | – | – | DCYA assay reactivity / classification in words [5]: highly reactive |
| O=Cc1ccccc1 [Benzaldehyde] | 0 | 1 | 0 | 0 | 98.1 | 0 | 0 | 1 | 0 | – |
| CC/C=C/C=O [t-2-Pentenal, trans-2-Pentenal] | – | – | – | – | 18.2 | – | – | – | – | NMR Classification [1]: Strong; Conversion at t30 (depletion of electrophile signal) ([1]; 30 min, 50 mM): 80%; NMR Method conversion ([1]; 90 min, 50 mM): 80%; DCYA assay reactivity / classification in words [5]: moderate reactive |
| C=C(C)[C@@H]1CCC2=CC(=O)C[C@@H](C)[C@]2(C)C1 [Nootkatone] | – | – | – | – | – | – | – | – | – | Conversion at t30 (depletion of electrophile signal) ([1]; at 30 min, 1 equiv. DCYA): 0%; NMR Classification [1, 7]: Non; NMR Method conversion [1, 8]: 0% |
| O=C(O)C(O)C(O)C(=O)O (stereo not drawn) [Tartaric acid] | 0 | 0 | 1 | 0 | 100.7 | 0 | 0 | 1 | 0 | – |
| CC(O)C(=O)O (stereo not drawn) [Lactic acid] | 0 | 0 | 1 | 0 | 100.1 | 0 | 0 | 1 | 0 | KeratinoSens ™ EC3 ([3]; reported results (Table 7)): >2000 µM |
| CC1=C(C=O)C(C)(C)CC=C1 [Safranal] | 0 | 0 | 0 | 1 | 82.9 | 0 | 0 | 0 | 1 | NMR assay reactivity / classification in words [1]: less reactive by NMR in the short time frame; Conversion at t30 (depletion of electrophile signal) ([1]; at 30 min, 1 equiv. DCYA): 3%; NMR Classification [1, 7]: Non; NMR Method conversion [1, 8]: 4%; LLNA (EC3) [2]: 7.5%; LLNA Classification [2]: Moderate; LLNA EC3 [2]: 7.5%; Cys-DPRA, percentage of thiol peptide depleted ([6]; adopted from the literature): 90.5^15%; Cys-DPRA % Pept. remain. [6]: 9.5% |
